Values after ≈ are worked out from the molar mass of the structure shown.
Columns and labels:
[1] = (§1) Cytotoxicity against African green monkey Vero cells assessed as reduction in cell viability incubated for 72 hrs by MTT assay; format: toxicity, cell-based; conditions: chlorocebus sabaeus, Vero cells
[2] = (§2) Cytotoxicity against human HepG2 cells assessed as reduction in cell viability incubated for 72 hrs by MTT assay; format: toxicity, cell-based; conditions: HepG2 cells
[3] = tested on: Mycobacterium tuberculosis; assay: microbe, parasite or virus in culture; conditions: H37Rv (ATCC 27294)
[4] = (§3) Cytotoxicity against African green monkey Vero cells assessed as reduction in cell viability incubated for 72 hrs by neutral red uptake method; format: toxicity, cell-based; conditions: chlorocebus sabaeus, Vero cells
[5] = (§4) Cytotoxicity against human HepG2 cells assessed as reduction in cell viability incubated for 72 hrs by neutral red uptake method; format: toxicity, cell-based; conditions: HepG2 cells
[6] = tested on: Mycobacterium tuberculosis; format: functional, H37Rv (ATCC 27294), RAW264.7; conditions: dose 1 µM; time 5 day
[7] = Aqueous solubility of compound in HCl at pH 1.2 incubated for 4 hrs by UHPLC-DAD analysis; format: physicochemical
[8] = Permeability of compound at pH 7.4 at 10 uM measured after 5 hrs by PAMPA assay; format: ADME; conditions: read-out: permeability
[9] = Metabolic stability in rat liver microsomes assessed as intrinsic clearance at 2 uM measured upto 30 mins in presence of NADPH by HPLC-MS/MS analysis; format: ADME, Microsome; conditions: read-out: CLH
[10] = Chemical stability of compound in 0.1 M HCl solution at pH 1.2 assessed as parent compound remaining at 10 uM measured after 24 hrs by HPLC-MS/MS analysis; format: physicochemical; conditions: read-out: Stability
[11] = Drug concentration in male CF1 mouse plasma at 300 mg/kg, po administered via gavage and measured after 1 hrs by UHPLC-DAD analysis; format: ADME, organism-based
[12] = Drug concentration in male CF1 mouse plasma at 300 mg/kg, po administered via gavage and measured after […] by UHPLC-DAD analysis; format: ADME, organism-based; conditions: time 0.25 hrs
Klebsiella pneumoniae = format: functional; conditions: time 24 hrs
[13] = Chemical stability of compound in 0.1M NH4HCO3 solution at pH 9.1 assessed as parent compound remaining at 10 uM measured after 24 hrs by HPLC-MS/MS analysis; format: physicochemical; conditions: read-out: Stability
[14] = Drug concentration in male CF1 mouse plasma at 300 mg/kg, po administered via gavage and measured after 4 hrs by UHPLC-DAD analysis; format: ADME, organism-based
[15] = Elimination rate constant in male CF1 mouse at 300 mg/kg, po administered via gavage and measured after 8 hrs by UHPLC-DAD analysis; format: ADME, organism-based; conditions: in vivo
Staphylococcus aureus = format: functional; conditions: ATCC 25923, time 24 hrs
[16] = Half-life in male CF1 mouse at 300 mg/kg, po administered via gavage and measured after 8 hrs by UHPLC-DAD analysis; format: ADME, organism-based; conditions: in vivo
Acinetobacter baumannii = format: functional; conditions: time 24 hrs
[17] = Drug concentration in male CF1 mouse plasma at 300 mg/kg, po administered via gavage and measured after 8 hrs by UHPLC-DAD analysis; format: ADME, organism-based
Escherichia coli = format: functional; conditions: ATCC 25922, time 24 hrs
[18] = tested on: Mycobacterium tuberculosis; format: functional, H37Rv (ATCC 27294), RAW264.7; conditions: dose 5 µM; time 5 day
[19] = Drug concentration in male CF1 mouse plasma at 300 mg/kg, po administered via gavage and measured after 0.5 hrs by UHPLC-DAD analysis; format: ADME, organism-based
[20] = tested on: Mycobacterium tuberculosis; format: functional, H37Rv (ATCC 27294), RAW264.7; conditions: dose 1 µM; time 5 day; remark: listed apart in the source
[21] = Drug concentration in male CF1 mouse plasma at 300 mg/kg, po administered via gavage and measured after 0.75 hrs by UHPLC-DAD analysis; format: ADME, organism-based
[22] = Metabolic stability in rat liver microsomes assessed as half-life at 2 uM measured upto 30 mins in presence of NADPH by HPLC-MS/MS analysis; format: ADME, Microsome
[23] = Chemical stability of compound in PBS at pH 7.4 assessed as parent compound remaining at 10 uM measured after 24 hrs by HPLC-MS/MS analysis; format: physicochemical; conditions: read-out: Stability
[24] = Aqueous solubility of compound in NH4HCO3 at pH 9.1 incubated for 4 hrs by UHPLC-DAD analysis; format: physicochemical; conditions: NH4HCO3, pH 9.1
Vero [25] = assay: as §1; format: toxicity, cell-based; conditions: chlorocebus sabaeus, vero, 72 h
[26] = Aqueous solubility of compound in PBS at pH 7.4 incubated for 4 hrs by UHPLC-DAD analysis; format: physicochemical
HepG2 [27] = assay: as §2; format: toxicity, cell-based; conditions: hepg2, 72 h
Vero [28] = assay: as §3; format: toxicity, cell-based; conditions: chlorocebus sabaeus, vero, 72 h
HepG2 [29] = assay: as §4; format: toxicity, cell-based; conditions: hepg2, 72 h

| SMILES | CC50 at 72 h [1] | CC50 at 72 h [2] | MIC [3] | CC50 at 72 h [4] | CC50 at 72 h [5] | solubility at 4 h [7] | further results |
| --- | --- | --- | --- | --- | --- | --- | --- |
| CCc1ccc(NCCCOc2cc(CC)nc3ccc(Br)cc23)cc1 | > 20 µM | > 20 µM | 0.1 µM (≈ 0.0413 µg/mL) | 9.1 µM | 8.3 µM | – | – |
| NNC(=O)c1ccncc1 [ISONIAZID] | – | – | – | – | – | – | Activity [6]: 2.25 log10CFU |
| Cc1cc(OCCCNc2ccc(Cl)cc2)c2cc(Br)ccc2n1 | – | > 20 µM | – | – | > 20 µM | > 2470 µM | – |
| CCc1ccc(NCCCOc2cc(C)nc3ccc(Br)cc23)cc1 | > 20 µM | > 20 µM | – | – | > 20 µM | > 2500 µM | Papp at 5 h, 10 µM [8]: 0.2 ×10⁻⁶ cm/s; CLint scaled at 2 µM [9]: 58 mL/min/kg; remaining at 24 h, 10 µM [10]: 100%; concentration at 1 h [11]: 32.1 µM; concentration at […] [12]: 7.49 µM; MIC (Klebsiella pneumoniae): > 20 µM; remaining at 24 h, 10 µM [13]: 6%; concentration at 4 h [14]: 13.5 µM; k el at 8 h [15]: 4.44e-05 s⁻¹; MIC (Staphylococcus aureus): > 20 µM; half-life [16]: 4.3 h; MIC (Acinetobacter baumannii): > 20 µM; concentration at 8 h [17]: 9.8 µM; MIC (Escherichia coli): > 20 µM; Activity [18]: 4.1 log10CFU; concentration at 0.5 h [19]: 11.1 µM; Activity [20]: 3.9 log10CFU; concentration at 0.75 h [21]: 15.7 µM; half-life at 2 µM [22]: 7 min; remaining at 24 h, 10 µM [23]: 5.3% |
| COc1ccc2nc(C)cc(OCCCNc3ccc(I)cc3)c2c1 | 8.2 µM | 10.6 µM | 0.09 µM (≈ 0.0403 µg/mL) | 7.5 µM | 12.8 µM | > 2230 µM | – |
| COc1ccc2nc(C)cc(OCCCNc3ccc(Br)cc3)c2c1 | > 20 µM | 15.3 µM | 0.1 µM (≈ 0.0401 µg/mL) | 12.8 µM | 16.8 µM | > 2500 µM | – |
| Cc1cc(OCCCNc2ccc(Br)cc2)c2cc(Cl)ccc2n1 | < 1 µM | 0.3 µM | 1.55 µM (≈ 0.629 µg/mL) | – | – | – | – |
| CCc1ccc(NCCCOc2cc(C)nc3ccc(Cl)cc23)cc1 | – | – | 0.03 µM (≈ 0.0106 µg/mL) | – | – | 200 µM (≈ 71 µg/mL) | solubility at 4 h [24]: 0.37 µM (≈ 0.131 µg/mL); CC50 (Vero [25]): Not_determined(Insoluble); solubility at 4 h [26]: 0.06 µM (≈ 0.0213 µg/mL); CC50 (HepG2 [27]): Not_determined(Insoluble); CC50 (Vero [28]): Not_determined(Insoluble); CC50 (HepG2 [29]): Not_determined(Insoluble) |
| CCc1ccc(NCCCOc2cc(C)nc3ccc(OC)cc23)cc1 | – | – | 0.06 µM (≈ 0.021 µg/mL) | – | – | 2650 µM (≈ 929 µg/mL) | – |
